From BigSolDB 2.1

## O=C(/C=C/C=C/c1ccc2c(c1)OCO2)N1CCCCC1
In acetone, 278.15 K
  solubility (mole fraction): 0.00485
In acetone, 283.15 K
  solubility (mole fraction): 0.00589
In acetone, 288.15 K
  solubility (mole fraction): 0.00706
In acetone, 293.15 K
  solubility (mole fraction): 0.0083
In acetone, 298.15 K
  solubility (mole fraction): 0.00973
In acetone, 303.15 K
  solubility (mole fraction): 0.0113
In acetone, 308.15 K
  solubility (mole fraction): 0.0129
In acetone, 313.15 K
  solubility (mole fraction): 0.0146
In acetone, 318.15 K
  solubility (mole fraction): 0.0166
In ethanol, 278.15 K
  solubility (mole fraction): 0.00413
In ethanol, 283.15 K
  solubility (mole fraction): 0.00503
In ethanol, 288.15 K
  solubility (mole fraction): 0.00607
In ethanol, 293.15 K
  solubility (mole fraction): 0.00714
In ethanol, 298.15 K
  solubility (mole fraction): 0.00827
In ethanol, 303.15 K
  solubility (mole fraction): 0.00966
In ethanol, 308.15 K
  solubility (mole fraction): 0.0111
In ethanol, 313.15 K
  solubility (mole fraction): 0.0126
In ethanol, 318.15 K
  solubility (mole fraction): 0.0143
In ethyl acetate, 278.15 K
  solubility (mole fraction): 0.00807
In ethyl acetate, 283.15 K
  solubility (mole fraction): 0.0104
In ethyl acetate, 288.15 K
  solubility (mole fraction): 0.0132
In ethyl acetate, 293.15 K
  solubility (mole fraction): 0.0161
In ethyl acetate, 298.15 K
  solubility (mole fraction): 0.0194
In ethyl acetate, 303.15 K
  solubility (mole fraction): 0.0232
In ethyl acetate, 308.15 K
  solubility (mole fraction): 0.0274
In ethyl acetate, 313.15 K
  solubility (mole fraction): 0.0321
In ethyl acetate, 318.15 K
  solubility (mole fraction): 0.0373
